Numbers after ± are expanded uncertainties.
Tests used:
[1] = refractive index (Na D-line) (dimensionless); xn = mol fraction of the nth substance listed; details: 101 kPa, Liquid, Standard Abbe refractometry
[2] = relative permittivity at various frequencies (dimensionless); xn = mol fraction of the nth substance listed; details: 101 kPa, Liquid, Frequency=0.1 MHz, Coaxial cylinder capacitor

CC(O)CCO (stereo not given) [1,3-butanediol] + C1COCCO1
Details | refractive index, 298.2 K | refractive index, 303.2 K | refractive index, 308.2 K | refractive index, 313.2 K | refractive index, 318.2 K | relative permittivity, 298.2 K | relative permittivity, 303.2 K | relative permittivity, 308.2 K | relative permittivity, 313.2 K | relative permittivity, 318.2 K
[1], x1 = 0.103 | 1.4217 ± 0.0005 | 1.4195 ± 0.0005 | 1.4165 ± 0.0005 | 1.414 ± 0.0005 | 1.4112 ± 0.0005 | – | – | – | – | –
[1], x1 = 0.204 | 1.4235 ± 0.0005 | 1.4213 ± 0.0005 | 1.4183 ± 0.0005 | 1.4161 ± 0.0005 | 1.4136 ± 0.0005 | – | – | – | – | –
[1], x1 = 0.301 | 1.425 ± 0.0005 | 1.423 ± 0.0005 | 1.4202 ± 0.0005 | 1.418 ± 0.0005 | 1.4155 ± 0.0005 | – | – | – | – | –
[1], x1 = 0.401 | 1.4268 ± 0.0005 | 1.425 ± 0.0005 | 1.4222 ± 0.0005 | 1.4202 ± 0.0005 | 1.4177 ± 0.0005 | – | – | – | – | –
[1], x1 = 0.451 | 1.4279 ± 0.0005 | 1.4258 ± 0.0005 | 1.4233 ± 0.0005 | 1.4213 ± 0.0005 | 1.419 ± 0.0005 | – | – | – | – | –
[1], x1 = 0.5 | 1.4287 ± 0.0005 | 1.4267 ± 0.0005 | 1.4243 ± 0.0005 | 1.4222 ± 0.0005 | 1.42 ± 0.0005 | – | – | – | – | –
[1], x1 = 0.548 | 1.4296 ± 0.0005 | 1.4275 ± 0.0005 | 1.4255 ± 0.0005 | 1.423 ± 0.0005 | 1.4209 ± 0.0005 | – | – | – | – | –
[1], x1 = 0.61 | 1.431 ± 0.0005 | 1.4285 ± 0.0005 | 1.4262 ± 0.0005 | 1.4242 ± 0.0005 | 1.4221 ± 0.0005 | – | – | – | – | –
[1], x1 = 0.699 | 1.4325 ± 0.0005 | 1.4308 ± 0.0005 | 1.4285 ± 0.0005 | 1.4267 ± 0.0005 | 1.4247 ± 0.0005 | – | – | – | – | –
[1], x1 = 0.788 | 1.4342 ± 0.0005 | 1.4326 ± 0.0005 | 1.4303 ± 0.0005 | 1.4287 ± 0.0005 | 1.4269 ± 0.0005 | – | – | – | – | –
[1], x1 = 0.897 | 1.4363 ± 0.0005 | 1.4348 ± 0.0005 | 1.4333 ± 0.0005 | 1.4314 ± 0.0005 | 1.4297 ± 0.0005 | – | – | – | – | –
[1], x1 = 0.951 | 1.4374 ± 0.0005 | 1.4361 ± 0.0005 | 1.4347 ± 0.0005 | 1.4329 ± 0.0005 | 1.4313 ± 0.0005 | – | – | – | – | –
[1], x1 = 1 | 1.4384 ± 0.0005 | 1.4371 ± 0.0005 | 1.4356 ± 0.0005 | 1.4341 ± 0.0005 | 1.4328 ± 0.0005 | – | – | – | – | –
[2], x1 = 0.103 | – | – | – | – | – | 3.36 ± 0.02 | 3.34 ± 0.02 | 3.32 ± 0.02 | 3.3 ± 0.02 | 3.28 ± 0.02
[2], x1 = 0.204 | – | – | – | – | – | 4.91 ± 0.02 | 4.85 ± 0.02 | 4.79 ± 0.02 | 4.72 ± 0.02 | 4.67 ± 0.02
[2], x1 = 0.301 | – | – | – | – | – | 6.73 ± 0.02 | 6.64 ± 0.02 | 6.54 ± 0.02 | 6.45 ± 0.02 | 6.38 ± 0.02
[2], x1 = 0.401 | – | – | – | – | – | 8.96 ± 0.02 | 8.82 ± 0.02 | 8.66 ± 0.02 | 8.52 ± 0.02 | 8.38 ± 0.02
[2], x1 = 0.451 | – | – | – | – | – | 10.17 ± 0.02 | 10 ± 0.02 | 9.83 ± 0.02 | 9.67 ± 0.02 | 9.5 ± 0.02
[2], x1 = 0.5 | – | – | – | – | – | 11.44 ± 0.02 | 11.23 ± 0.02 | 11.02 ± 0.02 | 10.85 ± 0.02 | 10.61 ± 0.02
[2], x1 = 0.548 | – | – | – | – | – | 12.76 ± 0.02 | 12.5 ± 0.02 | 12.25 ± 0.02 | 12.03 ± 0.02 | 11.77 ± 0.02
[2], x1 = 0.61 | – | – | – | – | – | 14.6 ± 0.03 | 14.3 ± 0.02 | 13.94 ± 0.02 | 13.63 ± 0.02 | 13.3 ± 0.02
[2], x1 = 0.699 | – | – | – | – | – | 17.46 ± 0.03 | 17.03 ± 0.03 | 16.58 ± 0.03 | 16.15 ± 0.03 | 15.73 ± 0.02
[2], x1 = 0.788 | – | – | – | – | – | 20.41 ± 0.03 | 19.88 ± 0.03 | 19.36 ± 0.03 | 18.88 ± 0.03 | 18.38 ± 0.03
[2], x1 = 0.897 | – | – | – | – | – | 24.35 ± 0.03 | 23.72 ± 0.03 | 23.02 ± 0.03 | 22.41 ± 0.03 | 21.79 ± 0.03
[2], x1 = 0.951 | – | – | – | – | – | 26.42 ± 0.04 | 25.72 ± 0.04 | 24.98 ± 0.04 | 24.29 ± 0.03 | 23.61 ± 0.03
[2], x1 = 1 | – | – | – | – | – | 28.52 ± 0.04 | 27.66 ± 0.04 | 26.77 ± 0.04 | 25.98 ± 0.04 | 25.22 ± 0.04

CC(O)CCO (stereo not given) [1,3-butanediol] + CCCCCCCCO
Details | refractive index, 298.2 K | refractive index, 303.2 K | refractive index, 308.2 K | refractive index, 313.2 K | refractive index, 318.2 K | relative permittivity, 298.2 K | relative permittivity, 303.2 K | relative permittivity, 308.2 K | relative permittivity, 313.2 K | relative permittivity, 318.2 K
[1], x1 = 0.105 | 1.4279 ± 0.0005 | 1.4257 ± 0.0005 | 1.4233 ± 0.0005 | 1.4209 ± 0.0005 | 1.4189 ± 0.0005 | – | – | – | – | –
[1], x1 = 0.2 | 1.4283 ± 0.0005 | 1.4261 ± 0.0005 | 1.4238 ± 0.0005 | 1.4215 ± 0.0005 | 1.4195 ± 0.0005 | – | – | – | – | –
[1], x1 = 0.301 | 1.4288 ± 0.0005 | 1.4268 ± 0.0005 | 1.4245 ± 0.0005 | 1.4223 ± 0.0005 | 1.4204 ± 0.0005 | – | – | – | – | –
[1], x1 = 0.401 | 1.4295 ± 0.0005 | 1.4275 ± 0.0005 | 1.4253 ± 0.0005 | 1.4232 ± 0.0005 | 1.4213 ± 0.0005 | – | – | – | – | –
[1], x1 = 0.45 | 1.43 ± 0.0005 | 1.4281 ± 0.0005 | 1.4259 ± 0.0005 | 1.4239 ± 0.0005 | 1.4221 ± 0.0005 | – | – | – | – | –
[1], x1 = 0.501 | 1.4305 ± 0.0005 | 1.4286 ± 0.0005 | 1.4265 ± 0.0005 | 1.4245 ± 0.0005 | 1.4227 ± 0.0005 | – | – | – | – | –
[1], x1 = 0.55 | 1.4311 ± 0.0005 | 1.4292 ± 0.0005 | 1.4272 ± 0.0005 | 1.4253 ± 0.0005 | 1.4236 ± 0.0005 | – | – | – | – | –
[1], x1 = 0.6 | 1.4316 ± 0.0005 | 1.4298 ± 0.0005 | 1.4278 ± 0.0005 | 1.426 ± 0.0005 | 1.4245 ± 0.0005 | – | – | – | – | –
[1], x1 = 0.66 | 1.4325 ± 0.0005 | 1.4307 ± 0.0005 | 1.4288 ± 0.0005 | 1.427 ± 0.0005 | 1.4255 ± 0.0005 | – | – | – | – | –
[1], x1 = 0.7 | 1.4331 ± 0.0005 | 1.4314 ± 0.0005 | 1.4295 ± 0.0005 | 1.4278 ± 0.0005 | 1.4262 ± 0.0005 | – | – | – | – | –
[1], x1 = 0.801 | 1.4347 ± 0.0005 | 1.4331 ± 0.0005 | 1.4313 ± 0.0005 | 1.4298 ± 0.0005 | 1.4283 ± 0.0005 | – | – | – | – | –
[1], x1 = 0.9 | 1.4364 ± 0.0005 | 1.4349 ± 0.0005 | 1.4332 ± 0.0005 | 1.4318 ± 0.0005 | 1.4304 ± 0.0005 | – | – | – | – | –
[1], x1 = 0.95 | 1.4373 ± 0.0005 | 1.4359 ± 0.0005 | 1.4343 ± 0.0005 | 1.4329 ± 0.0005 | 1.4315 ± 0.0005 | – | – | – | – | –
[1], x1 = 1 | 1.4384 ± 0.0005 | 1.4371 ± 0.0005 | 1.4356 ± 0.0005 | 1.4341 ± 0.0005 | 1.4328 ± 0.0005 | – | – | – | – | –
[2], x1 = 0.105 | – | – | – | – | – | 10.43 ± 0.03 | 9.99 ± 0.03 | 9.56 ± 0.03 | 9.1 ± 0.03 | 8.74 ± 0.02
[2], x1 = 0.2 | – | – | – | – | – | 11.24 ± 0.03 | 10.8 ± 0.03 | 10.32 ± 0.03 | 9.91 ± 0.03 | 9.5 ± 0.02
[2], x1 = 0.301 | – | – | – | – | – | 12.31 ± 0.03 | 11.86 ± 0.03 | 11.36 ± 0.03 | 10.95 ± 0.03 | 10.54 ± 0.02
[2], x1 = 0.401 | – | – | – | – | – | 13.6 ± 0.03 | 13.15 ± 0.03 | 12.62 ± 0.03 | 12.19 ± 0.03 | 11.76 ± 0.03
[2], x1 = 0.45 | – | – | – | – | – | 14.39 ± 0.03 | 13.92 ± 0.03 | 13.39 ± 0.03 | 12.94 ± 0.03 | 12.49 ± 0.03
[2], x1 = 0.501 | – | – | – | – | – | 15.23 ± 0.03 | 14.73 ± 0.03 | 14.21 ± 0.03 | 13.75 ± 0.03 | 13.27 ± 0.03
[2], x1 = 0.55 | – | – | – | – | – | 16.1 ± 0.03 | 15.6 ± 0.03 | 15.04 ± 0.03 | 14.53 ± 0.03 | 14.06 ± 0.03
[2], x1 = 0.6 | – | – | – | – | – | 17.05 ± 0.03 | 16.52 ± 0.03 | 15.93 ± 0.03 | 15.42 ± 0.03 | 14.92 ± 0.03
[2], x1 = 0.66 | – | – | – | – | – | 18.34 ± 0.03 | 17.77 ± 0.03 | 17.13 ± 0.03 | 16.57 ± 0.03 | 16.07 ± 0.03
[2], x1 = 0.7 | – | – | – | – | – | 19.31 ± 0.03 | 18.77 ± 0.03 | 18.02 ± 0.03 | 17.46 ± 0.03 | 16.91 ± 0.03
[2], x1 = 0.801 | – | – | – | – | – | 21.99 ± 0.04 | 21.34 ± 0.04 | 20.58 ± 0.03 | 20.02 ± 0.03 | 19.37 ± 0.03
[2], x1 = 0.9 | – | – | – | – | – | 25.05 ± 0.04 | 24.33 ± 0.04 | 23.43 ± 0.04 | 22.79 ± 0.03 | 22.1 ± 0.03
[2], x1 = 0.95 | – | – | – | – | – | 26.73 ± 0.04 | 25.9 ± 0.04 | 25.07 ± 0.04 | 24.31 ± 0.04 | 23.62 ± 0.03
[2], x1 = 1 | – | – | – | – | – | 28.52 ± 0.04 | 27.66 ± 0.04 | 26.77 ± 0.04 | 25.98 ± 0.04 | 25.22 ± 0.04
